One data set concerns the target HER2 (Homo sapiens, UniProt P04626). The experiment in a line: Caliper-based kinase assay, off-target HER2. As to conditions: Cys-481 homologous kinase panel. Format: biochemical. The text has this:
(§1) A Caliper-based kinase assay (Caliper Life Sciences, Hopkinton, Mass.) was used to measure inhibition of kinase activity of compounds of the present disclosure. […]

Data set [1] concerns CD69 surface expression in primary human B cells. The experiment in a line: Inhibition of CD69 surface expression in primary human B cells. Format: cell-based. To be noted: B-cell; 1 h pre-incubation, anti-human IgM stimulation 19 hr. As for the experimental part:
Primary human B cells (CD20+, purified by negative selection) were obtained from StemCell Technologies. Prior to experiment, the cells were thawed and washed two times with RPMI growth media supplemented with 10% FBS. The cells were seeded into 24 well plate at a density of 4×10^5 cells/per a well in a total volume of 500 uL. 6 hr after plating, serial dilutions of NW-1-96 were added. Control wells received DMSO only (0.1%). After 1 h pre-incubation with compound, the cells were stimulated for 19 hr with goat anti-human IgM F(ab′)2 (10 μg/mL; ThermoFisher). After stimulation, the cells were fixed by addition of paraformaldehyde to a final concentration of 4% and incubated for 20 min at room temperature. Fixed cells were collected into Eppendorf tubes, centrifuged at 1,000×g and washed three times with 50 mM Tris pH8.0, 100 mM NaCl. After washes, the cells were re-suspended in 100 uL of 50 mM Tris pH8.0, 100 mM NaCl, 0.1% BSA supplemented with 5 ug/mL of FITC-conjugated anti-CD69 antibody (ThermoFisher) and incubated at room temperature for 2 hr. The cells were next washed 3 times with 10 volumes of 50 mM Tris pH8.0, 100 mM NaCl, 0.1% BSA and re-suspended in 150 ul of the same buffer. […] CD69 staining was detected on Synergy Neo2 fluorescent plate reader: […].

The test system of data set [2] is liver cancer cell line HepG2. The experiment in a line: HepG2 in vitro liver toxicity assay (ATPlite). It is filed as cell-based. As to conditions: Homo sapiens, HepG2, about 72 hours incubation. How it is done: Cell antiproliferation is assayed by PerkinElmer ATPlite™ Luminescence Assay System. Briefly, the liver cancer cell line HepG2 are plated at a density of about 1×10^4 cells per well in Costar 96-well plates, and are incubated with different concentrations of compounds for about 72 hours in medium supplemented with 5% FBS. One lyophilized substrate solution vial is then reconstituted by adding 5 mL of substrate buffer solution, and is agitated gently until the solution is homogeneous. About 50 μL of mammalian cell lysis solution is added to 100 μL of cell suspension per well of a microplate, and the plate is shaken for about five minutes in an orbital shaker at −700 rpm. This procedure is used to lyse the cells and to stabilize the ATP. Next, 50 μL substrate solution is added to the wells and microplate is shaken for five minutes in an orbital shaker at −700 rpm. Finally, the luminescence is measured by a PerkinElmer TopCount® Microplate Scintillation Counter. Such assays, carried out with a range of doses of test compounds, allow the determination of the cellular anti-antiproliferative IC50 of the compounds of the present invention.

The target in a further data set is EGFR (Homo sapiens, UniProt P00533). The experiment in a line: Caliper-based kinase assay, off-target EGFR. It is filed as biochemical. To be noted: Cys-481 homologous kinase panel.
From the text: as §1

Data set [3] concerns the target T1, WT BTK (Homo sapiens, UniProt Q06187). The experiment in a line: In vitro dialysis assay (irreversibility assay), WT BTK. Format: biochemical. As to conditions: reversible or irreversible/covalent inhibition after 24 h dialysis. In short, it runs like this:
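Compound-BTK complex was dialyzed 24 hr against […] (cumulative factor >160,000×). Residual activity was then […] and 1 mM substrate peptide and compared with non-dialyzed samples. Buffer: 100 mM HEPES pH 7.5, 5 mM MgCl2, 1 mM DTT, BSA, Triton X-100.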

A further data set is described as follows: Mice PK study. Format: in vivo. As to conditions: plasma, CD-1 mouse, po, 10 mg/kg; for half-life: read-out: t ½ (converted). As for the experimental part: The pharmacokinetics of compounds were evaluated in CD-1 mouse via Intravenous and Oral Administration. The IV dose was administered as a slow bolus in the Jugular vein, and oral doses were administered by gavage. The formulation for IV dosing is 5% DMSO in 20% HPBCD in water, and the PO formulation is 2.5% DMSO, 10% EtOH, 20% Cremphor EL, 67.5% D5W. The PK time point for the IV arm was 5, 15, 30 min, 1, 2, 4, 6, 8, 12, 24 hours post dose, and for PO arm was 15, 30 min, 1, 2, 4, 6, 8, 12, 24 hours post dose. Approximately 0.03 mL blood was collected at each time point. Blood of each sample was transferred into plastic micro centrifuge tubes containing EDTA-K2 and plasma was collected within 15 min by centrifugation at 4000 g for 5 minutes in a 4° C. centrifuge. Plasma samples were stored in polypropylene tubes. The samples were stored in a freezer at −75±15° C. prior to analysis. Concentrations of compounds in the plasma samples were analyzed using a LC-MS/MS method. WinNonlin (Phoenix™, version 6.1) or other similar software was used for pharmacokinetic calculations. The following pharmacokinetic parameters were calculated, whenever possible from the plasma concentration versus time data: IV administration: C0, CL, Vd, T1/2, AUCinf, AUClast, MRT, Number of Points for Regression; PO administration: Cmax, Tmax, T1/2, AUCinf, AUClast, F %, Number of Points for Regression. The pharmacokinetic data was described using descriptive statistics such as mean, standard deviation. Additional pharmacokinetic or statistical analysis was performed at the discretion of the contributing scientist, and was documented in the data summary. For comparison purpose, the PK results of oral dosing of po, 25 mg/kg of Acalbrutinib, a FDA approved BTK inhibitor, were obtained using the same methods and shown in the Table below.

Data set [4] concerns the target T1, WT BTK. The experiment in a line: Caliper-based kinase assay, WT BTK. It is filed as biochemical. To be noted: 0.5 nM enzyme, ATP 16 μM, room temperature 3 h; read-out: WT BTK IC50 (nM) (irreversible inhibition). How it is done: A Caliper-based kinase assay (Caliper Life Sciences, Hopkinton, Mass.) was used to measure inhibition of WT and […] Btk kinase activity of a compound of the present disclosure. […] The reaction was then terminated with EDTA, final concentration 20 mM and the phosphorylated reaction product was quantified on a Caliper Desktop Profiler (Caliper LabChip 3000).

A further data set deals with BTK (Homo sapiens, UniProt Q06187). The experiment in a line: Caliper-based kinase assay, Cys-containing kinase panel: BTK. To be noted: for IC50: Cys-481 homologous kinase panel. It is filed as biochemical. An excerpt: A Caliper-based kinase assay (Caliper Life Sciences, Hopkinton, Mass.) was used to measure inhibition of kinase activity of compounds of the present disclosure.

Molecules are shown by their SMILES. Where two headings read alike, the source gives them in different places. Some results are limits rather than exact numbers.

HER2, sequence (P04626 23-1255): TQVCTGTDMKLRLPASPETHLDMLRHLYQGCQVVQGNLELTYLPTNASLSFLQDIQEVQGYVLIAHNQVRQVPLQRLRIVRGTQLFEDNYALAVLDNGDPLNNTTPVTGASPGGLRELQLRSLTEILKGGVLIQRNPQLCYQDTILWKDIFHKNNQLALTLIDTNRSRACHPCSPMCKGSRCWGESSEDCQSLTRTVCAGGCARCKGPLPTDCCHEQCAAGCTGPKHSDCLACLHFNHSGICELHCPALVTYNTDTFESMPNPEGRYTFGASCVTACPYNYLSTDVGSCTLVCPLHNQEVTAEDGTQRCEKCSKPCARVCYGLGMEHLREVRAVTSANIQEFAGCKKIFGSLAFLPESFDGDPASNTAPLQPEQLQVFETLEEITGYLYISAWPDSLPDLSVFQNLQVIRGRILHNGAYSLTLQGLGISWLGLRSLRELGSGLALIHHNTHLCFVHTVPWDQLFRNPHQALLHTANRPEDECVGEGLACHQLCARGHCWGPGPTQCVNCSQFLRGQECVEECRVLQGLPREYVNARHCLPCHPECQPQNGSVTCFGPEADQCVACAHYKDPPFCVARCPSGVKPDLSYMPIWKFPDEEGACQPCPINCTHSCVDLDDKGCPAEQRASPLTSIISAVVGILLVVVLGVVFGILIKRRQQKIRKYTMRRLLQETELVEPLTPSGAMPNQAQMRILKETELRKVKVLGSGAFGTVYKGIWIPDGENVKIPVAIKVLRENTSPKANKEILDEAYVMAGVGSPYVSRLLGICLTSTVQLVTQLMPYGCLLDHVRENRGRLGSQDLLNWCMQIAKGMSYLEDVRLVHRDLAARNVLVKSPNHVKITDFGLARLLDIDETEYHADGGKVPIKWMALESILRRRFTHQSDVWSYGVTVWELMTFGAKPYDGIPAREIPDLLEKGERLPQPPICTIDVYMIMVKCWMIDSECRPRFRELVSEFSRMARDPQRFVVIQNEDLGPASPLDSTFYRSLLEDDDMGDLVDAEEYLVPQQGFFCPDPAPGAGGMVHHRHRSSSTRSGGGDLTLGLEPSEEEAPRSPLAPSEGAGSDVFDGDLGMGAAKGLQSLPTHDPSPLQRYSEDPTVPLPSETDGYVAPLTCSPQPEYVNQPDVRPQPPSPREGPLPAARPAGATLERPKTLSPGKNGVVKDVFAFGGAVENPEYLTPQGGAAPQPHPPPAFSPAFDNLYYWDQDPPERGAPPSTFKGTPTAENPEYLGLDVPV
BTK, sequence (Q06187 whole entry): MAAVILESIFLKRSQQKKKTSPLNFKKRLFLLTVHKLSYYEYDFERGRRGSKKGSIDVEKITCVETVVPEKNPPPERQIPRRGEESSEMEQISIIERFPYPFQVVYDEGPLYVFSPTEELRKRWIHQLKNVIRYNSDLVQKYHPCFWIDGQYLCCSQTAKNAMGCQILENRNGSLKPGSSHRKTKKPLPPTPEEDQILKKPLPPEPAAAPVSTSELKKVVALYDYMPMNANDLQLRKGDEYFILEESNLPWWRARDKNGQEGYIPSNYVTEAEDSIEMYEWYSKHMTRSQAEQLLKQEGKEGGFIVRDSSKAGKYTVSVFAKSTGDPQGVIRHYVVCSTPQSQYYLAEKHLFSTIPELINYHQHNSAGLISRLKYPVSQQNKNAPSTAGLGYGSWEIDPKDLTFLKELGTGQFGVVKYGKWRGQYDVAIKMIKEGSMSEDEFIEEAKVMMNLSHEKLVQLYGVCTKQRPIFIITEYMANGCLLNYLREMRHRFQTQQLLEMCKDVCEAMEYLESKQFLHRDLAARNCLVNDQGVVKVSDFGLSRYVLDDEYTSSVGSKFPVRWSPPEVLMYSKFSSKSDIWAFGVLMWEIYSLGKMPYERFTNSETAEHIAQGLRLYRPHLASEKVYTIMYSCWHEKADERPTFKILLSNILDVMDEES
T1 sequence (Q06187 whole entry): as above
EGFR, sequence (P00533 25-1210): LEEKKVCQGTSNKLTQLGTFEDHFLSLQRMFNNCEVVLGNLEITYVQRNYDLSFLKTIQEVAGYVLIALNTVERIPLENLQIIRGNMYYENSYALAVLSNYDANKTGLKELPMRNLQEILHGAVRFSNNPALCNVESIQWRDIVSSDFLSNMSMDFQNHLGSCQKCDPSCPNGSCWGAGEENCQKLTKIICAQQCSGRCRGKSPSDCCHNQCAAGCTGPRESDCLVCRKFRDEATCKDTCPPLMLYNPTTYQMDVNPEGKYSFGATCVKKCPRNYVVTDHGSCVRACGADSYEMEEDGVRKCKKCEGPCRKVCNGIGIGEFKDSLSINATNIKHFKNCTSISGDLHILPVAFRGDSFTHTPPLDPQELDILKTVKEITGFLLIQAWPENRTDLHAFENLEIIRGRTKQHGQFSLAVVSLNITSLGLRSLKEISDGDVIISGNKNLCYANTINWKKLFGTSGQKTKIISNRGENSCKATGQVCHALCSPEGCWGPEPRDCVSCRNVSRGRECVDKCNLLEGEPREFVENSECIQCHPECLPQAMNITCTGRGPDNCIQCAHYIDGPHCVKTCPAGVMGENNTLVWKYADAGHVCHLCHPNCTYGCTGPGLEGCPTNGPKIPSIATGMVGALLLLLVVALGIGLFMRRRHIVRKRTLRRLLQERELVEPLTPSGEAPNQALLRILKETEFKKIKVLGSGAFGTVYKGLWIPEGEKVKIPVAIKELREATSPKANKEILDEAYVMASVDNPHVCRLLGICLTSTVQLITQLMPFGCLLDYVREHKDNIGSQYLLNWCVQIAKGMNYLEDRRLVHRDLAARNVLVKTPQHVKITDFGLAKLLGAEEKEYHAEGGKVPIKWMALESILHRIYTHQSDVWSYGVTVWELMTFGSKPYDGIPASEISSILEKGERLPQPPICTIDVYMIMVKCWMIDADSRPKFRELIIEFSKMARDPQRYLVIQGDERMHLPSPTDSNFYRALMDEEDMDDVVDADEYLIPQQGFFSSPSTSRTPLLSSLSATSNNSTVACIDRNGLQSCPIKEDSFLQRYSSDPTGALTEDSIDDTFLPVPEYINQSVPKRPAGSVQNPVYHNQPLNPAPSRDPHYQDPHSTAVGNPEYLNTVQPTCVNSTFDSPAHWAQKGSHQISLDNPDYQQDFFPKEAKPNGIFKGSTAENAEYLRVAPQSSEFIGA

For the molecule `CC(C)(/C=C(\C#N)C(=O)N1CCC[C@@H](n2nc(-c3ccc(Oc4ccccc4)cc3F)c3c(N)ncnc32)C1)N1CCN(C2COC2)CC1` [PRN-1008, reference compound], the half-inhibitory concentration (IC50) was greater than 1000 nM against HER2, 109 nM in data set [1], 39600 nM in data set [2] (read-out: HepG2 IC50) and 268 nM against EGFR.

For `C=CC(=O)Nc1cc(Nc2nc(-c3ccnc(N4CCn5c(cc6c5CC(C)(C)C6)C4=O)c3CO)cn(C)c2=O)ccc1N1CCN(C2CCOCC2)C[C@H]1C(F)(F)F` [Example 48-S, N-(5-[[6-(2-[4,4-dimethyl-9-oxo-1,10-diazatricyclo[6.4.0.0^[2,6]]dodeca-2(6),7-dien-10-yl]-3-(hydroxymethyl)pyridin-4-yl)-4-methyl-3-oxopyrazin-2-yl]amino]-2-[(2S)-4-(oxan-4-yl)-2-(trifluoromethyl)piperazin-1-yl]phenyl)prop-2-enamide], the “Conclusion (WT BTK)” value on WT BTK [3] is recorded as “Irreversible/covalent inhibition”. For the same molecule, the half-maximal inhibitory concentration (IC50) against HER2 is greater than 1000 nM; on WT BTK [4] it was 0.08 nM; on BTK, 0.1 nM; in data set [2] (read-out: HepG2 IC50), 64500 nM; against EGFR it was greater than 1000 nM. The same molecule registered an AUC in “Mice PK study” of 11600 ng·h/mL. In “Mice PK study”, the half-life is 1 h.

As to `C=CC(=O)Nc1cc(Nc2nc(-c3ccnc(N4CCc5c(sc6c5CCCC6)C4=O)c3CO)cn(C)c2=O)ccc1N1CCN(C2CCOCC2)C[C@H]1C(F)(F)F` [Example 55-S, N-[5-([6-[3-(hydroxymethyl)-2-[6-oxo-8-thia-5-azatricyclo[7.4.0.0^[2,7]]trideca-1(9), 2(7)-dien-5-yl]pyridin-4-yl]-4-methyl-3-oxopyrazin-2-yl]amino)-2-[(2S)-4-(oxan-4-yl)-2-(trifluoromethyl)piperazin-1-yl]phenyl]prop-2-enamide], the “Conclusion (WT BTK)” value at WT BTK [3] is on record as “Irreversible/covalent inhibition”. Besides, the IC50 on HER2 was greater than 1000 nM; at WT BTK [4], 0.43 nM; at BTK, 0.25 nM; in data set [1], 9.4 nM; in data set [2] (read-out: HepG2 IC50), 197000 nM; in data set [2] (another experiment, read-out: HepG2 IC50 (another experiment)), greater than 200000 nM. The molecule further came in with a half-maximal inhibitory concentration (IC50) against EGFR greater than 1000 nM. In “Mice PK study”, the area under the curve (AUC) came to 74800 ng·h/mL. In “Mice PK study”, the half-life was 1.7 h. Besides, the “Selectivity among kinases that contain a Cys homologous to Cys-481 in BTK” value at BTK (BTK versus BMX, TEC, TXK, BLK, HER4, EGFR, HER2) was “excellent selectivity”.

The record behind these values is patent US20220363689A1, “INHIBITOR OF BTK AND MUTANTS THEREOF” (Newave Pharmaceutical Inc., priority 2019, published 2022).
